Where “and” joins values, the source holds several entries; their conditions need not be identical. Equal values may be shown once.
Tested on: serum lipids and serum lipid hydroperoxide
Experiment: Pharmacological test method A for anti-hyperlipidemic activity (serum lipids, 2 weeks feeding)
Format: in vivo, male Wistar strain rats
Settings: for AI [(TC - HDL-C)/(HDL-C)] / HDL-C in serum / LPO in serum / PL in serum / TC in serum / TG in serum: 1% in hyperlipidemic diet, 2 weeks
Protocol: Male Wistar strain rats (100±lg, each 10 rats were formed into a group) were used as test animals. Diet for the control group was prepared by thorough mixing of 20% casein, 62.5% glucose, 10% hydrogenated coconut oil, 2% agar powder, 4% vitamin-containing salt mixture, 1% cholesterol, and 0.5% cholic acid (this composition is described by Fukushima et al, in "Yakugaku Zassi", 89, No. 6, pp. 857-862 (1962)). Diet for the test groups was prepared by good mixing of 1% each of cycloartenol, 24-methylenecycloartanol, and cyclobranol with the control group's diet. Each rat was kept in a cage at a constant temperature of 23±1° C. and a constant R.H. of 55±5% for 2 weeks, during which 10 g/day of the prescribed was given. Finally the rats were fasted from food except water for 16 hours (from 4 p.m. of the 14th test day to 8 a.m. of the 15th test day), and under anesthesia with pentbarbital sodium (tradename: Nembutal), blood was taken from each rat through the descending abdominal arota. Then, TC, HDL-C, TG, PL, and LPO in the serum were measured in the manner that will be described below.
A TC kit-K (supplied by Nippon Shoji Kaisha, Ltd.) was used. The principle of this determination is as follows: The ester of cholesterol in the serum is hydrolyzed with cholesterol-ester hydrolase into free cholesterol and fatty acids. All the free cholesterol is oxidized with cholesterol oxydase to form Δ^4 -cholestenone and hydrogen peroxide. Phenol and 4-aminoantipyrin are oxidatively condensed together by the formed hydrogen peroxide and peroxydase. The produced red quinone coloring matter is measured by colorimetry for absorbance at 500 nm using a spectrophotometer, thereby determining the TC:
The color-developing liquid (3.0 ml) is well mixed with the sample serum (0.02 ml). The mixture once heated at 37° C. for 15 minutes, is measured for absorbance at 500 nm with a spectrophotometer. The found absorbance is denoted by EA. On the other hand, the color-developing liquid (3.0 ml) is well mixed with the standard solution. The mixture is treated and measured for absorbance at 500 nm in the same manner as the above. This found absorbance is denoted by ES. Both EA and ES are determined with reference to the value of the blank test conducted using the color-developing liquid (3.0 ml) alone. [formula]
An HDL-C kit-N (supplied by Nippon Shoji Kaisha, Ltd.) was used. […] (VLDL) and lo density lipoprotein (LDL) in the serum is precipitated by the action of heparin. The precipitate is separated by centrifugation. High density lipoprotein (HDL) is dissolved in the separated supernatant. Esters of cholesterol in this fraction is hydrolyzed with cholesterol-ester hydrolase into free cholesterol and fatty acids. All the free cholesterol is oxidized with cholesterol oxydase to form Δ^4 -cholestenone and hydrogen peroxide. Phenol and 4-aminoantipyrine are oxidatively condensed together by the formed hydrogen peroxide and peroxydase. The produced red quinone coloring matter is measured by colorimetry for absorbance at 500 nm using a spectrophotometer, thereby determining the HDL-C.
A PL kit-K (supplied by Nippon Shoji Kaisha, Ltd.) was used for the determination. Lecithin, sphingomyelin, and lysolecithin are decomposed by phospholipase D into choline and phosphatidic acid, N-acylsphingosyl phosphate, or lysophosphatidic acid, respectively. The resulting choline is quantitatively decomposed by choline oxydase into hydrogen peroxide and betaine. With this hydrogen peroxide, and aid of peroxydase, phenol and 4-aminoantipyrin are condensed into red quinone pigment, then the absorbance at 500 nm of which is measured with a spectrophotometer, thereby determining the PL.
Serum TG level was determined by means of a triglyceride test kit (supplied by Wako Pure Chemical Industries, Ltd.) in which acetylacetone is used for a reagent, in the following manner: Serum proteins are precipitated, when isopropyl alcohol and the sample serum are mixed. […]

Molecule | AI [(TC - HDL-C)/(HDL-C)] | HDL-C in serum | LPO in serum | PL in serum | TC in serum | TG in serum | AI Diff. (Table 2, versus control group) [mg/dL] | AI Diff. (versus control group) | LPO % of diff. (versus control group) | PL % of diff. (versus control group) | TC % of diff. (versus control group) | TG % of diff. (versus control group) | AI % of diff. (versus control group) [%] | HDL-C % of diff. (versus control group) | HDL-C Diff. (versus control group) | LPO Diff. (versus control group) [nmol/mL] | PL Diff. (versus control group) [mg/dL] | TC Diff. (versus control group) [mg/dL] | TG Diff. (versus control group) [mg/dL]
cycloartenyl-3,4-dihydroxycinnamate [Example 2] | 0.860 and 1.180 | 90.3 mg/dL and 89.2 mg/dL | 1.98 nmol/mL and 2.05 nmol/mL | 168.2 mg/dL and 170.2 mg/dL | 168.0 mg/dL and 194.5 mg/dL | 30.6 mg/dL and 41.3 mg/dL | -0.657 | -0.504 | -12.8% and -11.2% | -3.1% and -5.0% | -18.1% and -10.4% | -10.9% and -3.5% |  |  |  |  |  |  | 
CC(=O)Nc1ccc(C(=O)OC2CCC34CC35CCC3(C)C(C(C)CCC=C(C)C)CCC3(C)C5CCC4C2(C)C)cc1 (stereo not drawn) [Example 20, cycloartenyl-p-acetamidobenzoate] | 0.867 | 90.4 mg/dL | 2.02 nmol/mL | 143.3 mg/dL | 168.8 mg/dL | 35.2 mg/dL |  | -0.355 | -9.7% | -17.0% | -12.2% | -3.0% | -29.1 | +4.5% | +3.9 mg/dl | -0.22 | -29.3 | -23.4 | -1.1
C=C(CCC(C)C1CCC2(C)C3CCC4C(C)(C)C(OC(=O)C=Cc5ccc(O)c(O)c5)CCC45CC35CCC12C)C(C)C (stereo not drawn) [Example 82, 24-Methylenecycloartanyl ester of 3,4-dihydroxycinnamic acid] | 1.228 | 87.9 mg/dL | 2.08 nmol/mL | 173.9 mg/dL | 195.8 mg/dL | 42.3 mg/dL |  | -0.456 | -9.8% | -3.2% | -9.8% | -1.2% | -27.1 | +8.7% | +7.0 mg/dl | -0.23 | -5.8 | -21.3 | -0.5
COc1cc(C=CC(=O)OC2CCC34CC35CCC3(C)C(C(C)CCC=C(C)C)CCC3(C)C5CCC4C2(C)C)ccc1O (stereo not drawn) [Example 100-1, cycloartenyl-4-hydroxy-3-methoxycinnamate] | 1.204 | 79.1 mg/dL | 1.51 nmol/mL | 150.0 mg/dL | 174.3 mg/dL | 28.3 mg/dL |  | -0.313 | -33.5% | -13.3% | -15.0% | -17.6% | -20.6 | -3.0% | -2.4 mg/dL | -0.76 | -23.1 | -30.8 | -6.0

— patent US4748161A, “Triterpenyl esters of organic acids and hypolipidemic agents composed of them” (Amano Pharmaceutical Co., Ltd., priority 1984, dated 1988)
